Data on one compound can be found in patent US20150259313A1, “Antitumor Agent” (priority 2014, published 2015).

Data set [1] deals with hedgehog signaling pathway. In words: Gli luciferase reporter assay in Gli Reporter-NIH3T3 cells stimulated with mShh. Particulars: mShh 1 μg/ml, 27 hours, read-out: IC50 for inhibition of the hedgehog signaling pathway. The data set is classed as cell-based. The method, then:
In vitro test: Experimental method to measure the inhibition of jervine on the hedgehog signaling pathway
Hedgehog signaling pathway Gli Reporter-NIH3T3 cells were cultured in DMEM medium with 10% Calf serum, 1% Penn-strep, 500 μg/ml of Geneticin.
To perform the Gli luciferase reporter assay, Gli Reporter-NIH3T3 cells were seeded at 25,000 cells per well into white clear-bottom 96-well microplate in 100 μl of growth medium. Cells were incubated at 37° C. and 5% CO2 for overnight. Next day remove the medium from wells and add 45 μl of diluted inhibitor in assay medium (Opti-MEM Reduced Serum Medium+0.5% calf serum+1% non-essential amino acids+1 mM Na-pyruvate+10 mM HEPES+1% Pen/Strep) per well. Incubate cells at 37° C. in a CO2 incubator for 2 hours. Then add 5 μl of diluted mShh in assay medium to wells (final [mShh]=1 μg/ml). Add […] of assay medium to cell-free control wells. Cells were treated for 27 hours. […] Luminescence was measured using a luminometer(BioTek Synergy™ 2 microplate reader) 2.3 Data Analysis
Reporter assays in triplicate were performed at each concentration. The luminescence intensity data were analyzed using the computer software, Graphpad Prism. In the absence of the compound, the luminescence intensity (Lt) in each data set was defined as 100%. In the absence of cells, the luminescence intensity (Lb) in each data set was defined as 0%. […]
(A reporter such as luciferase makes a cellular process visible.)

Data set [2] can be described thus: Maximum tolerated dose of jervine on BALB/c nude mice. The settings on record: 14 days. It is filed as in vivo. As to the method: Result indicates the maximum tolerated dose of jervine is higher than 80 mg/kg for BALB/c mice.
Study the maximum tolerated dose of jervine on BALB/c nude mice 9 BALB/c nude mice were divided equally into 3 groups. The mice were orally dosed at 50 mg/kg, 80 mg/kg and 150 mg/kg by groups. […] It was initialy determinded that the maximum tolerated dose is higher than 80 mg/kg for BALB/c nude mice.

Data set [3] deals with NCI-H2122 lung cancer xenograft. It is filed as in vivo, BALB/c nude mice.
Protocol: (§1) NCI-H2122 cells were cultured in RMPI1640 medium, A431 tumor cells were cultured in DMEM medium, all the medium were supplemented with 10% heat inactivated fetal bovine serum, all cells used EDTA containing trypsin, passaged twice a week, incubated at 37° C. in an atmosphere of 5% CO2 in air and cultured.
(§2) 110 BALB/c nude mice, female, 6-8 weeks old, 18-22 g in body weight, were purchased from Shanghai Laboratory Animal Center (SLAC, Shanghai, China). The mice were kept in individually ventilated cage (NC) systems at constant temperature and humidity, with 20.5-24.5° C. for temperature, 40-75% for humidity. With 4 animals in each cage, the size ogf the cage is 325 mm×210 mm×180 mm. The bedding material is corn cob, which is changed twice per week. Animals had free access to irradiation sterilized dry granule food and water during the entire study period. The food and water were changed twice per week. The identification labels for each cage contain the following information: number of animals, sex, strain, and date received treatment, study number, group number, and the starting date of the treatment. Animals were marked by ear coding. The experiments started one week after receiving the animals.
Each mouse were inoculated subcutaneously at the right flank region with NCI-H2122 tumor cells (5×10^7/ml), NCI-H1703 tumor cells (1×10^8/ml) and A431 tumor cells (5×10^7/ml), respectively in a mixture of phosphate-buffered saline and matrigel for tumor development via a 1 ml syringe. The treatments were started when the mean tumor size reached about 200 (150-250) mm^3. […]
8.1 Tumor size was measured twice weekly in two dimensions using a caliper, and the volume was expressed in mm^3 using the formula: V=0.5 a×b^2 where a and b are the long and short diameters of the tumor, respectively. […]
(§3) A one-way analysis of variance was performed followed by multiple comparison procedures. All data was analyzed using SPSS 18.0.*p <0.05 or **P<0.01 are generally considered statistically significant when compared with vehicle group.
A short description of data set [4]: Pharmacokinetic study of jervine in mice. Particulars: CD-1 mice. It is filed as in vivo. As to the method: Orally dosed: A total of 3 male experimental CD-1 mice, approximately 8 weeks of age at receipt was administered jervine via oral gavage at 10 mg/kg. Blood samples (300 μL) were collected via cardiac puncture predose and at 2 minute, 5 minute, 15 minute, 0.5 hour, 1 hour, 2 hour, 4 hour, 8 hour, 24 hours postdose. Plasma was made form the blood samples in order to measure the concentration of jervine.

Data set [5] deals with BXPC-3 human pancreatic carcinoma xenograft. It is filed as in vivo, BALB/c nude mice. Particulars: BXPC-3 xenograft.
Protocol: BXPC-3 tumor cells cultured in RMPI1640 medium supplemented with 10% heat inactivated fetal bovine serum, all cells used EDTA containing trypsin, passaged twice a week, incubated at 37° C. in an atmosphere of 5% CO2 in air and cultured.
40 BALB/c nude mice, female, 6-8 weeks old, 18-22 g in body weight, were purchased from Shanghai Laboratory Animal Center (SLAC, Shanghai, China).
Each mouse was inoculated subcutaneously at the right flank region with BXPC-3 tumor cells (5×10^7) in 0.1 ml of phosphate-buffered saline with matrigel via a 1 ml syringe for tumor development. The treatments were started when the mean tumor size reaches approximately 200 (150-250) mm^3 at 9 days after inoculation.
Data set [6] concerns A431 basal cell carcinoma xenograft. The data set is described as follows: A431 basal cell carcinoma xenograft tumor model, inoculated subcutaneously. The data set is classed as in vivo, BALB/c nude mice. Particulars: 40-80 mg/kg p.o. QD × 21 days.
Protocol: as §1, §2
(§4) Each mouse were inoculated subcutaneously at the right flank region with NCI-H2122 tumor cells (5×10^7/ml), NCI-H1703 tumor cells (1×10^8/ml) and A431 tumor cells (5×10^7/ml), respectively in a mixture of phosphate-buffered saline and matrigel for tumor development via a 1 ml syringe. The treatments were started when the mean tumor size reached about 200 (150-250) mm^3.
(§5) After tumor volume reached 3000 mm^3 or average tumor volume reached 2000 mm^3, before experimental animals emaciated or coma, anesthesia and euthanasia will be performed. During the experiment, if the weight loss of experimental animal reaches 20%, administration will be discontinued and experimental animals will be observed until the weight returned to 10% range before restart of the administration. In this experiment, when the mean tumor volume reached 2000 mm^3 or at the end of 59 days after the administration, experimental animals will be anesthesiaed to collect tumor mass which will be weighed and photographed.
(§6) 8.1 Tumor size was measured twice weekly in two dimensions using a caliper, and the volume was expressed in mm^3 using the formula: V=0.5 a×b^2 where a and b are the long and short diameters of the tumor, respectively.
(§7) 8.2 T/C, percent value, T and C were the mean volume of the treated and control groups, respectively, on a given day.
as §3
The subject of a further data set is A431 xenograft. The description is as above. The data set is classed as in vivo, BALB/c nude mice.
[7] abbreviates: male, mouse, PO 10 mg/Kg, plasma.

The structures appear in SMILES notation. “Also recorded” adds a separate entry of the source. Read-outs that look alike come from different tables or passages of the source.

Protocol for A431 xenograft: as §1, §2, §4, §5, §6, §7, §3

As to `CC1=C2C(=O)[C@H]3[C@@H](CC=C4C[C@@H](O)CC[C@@]43C)[C@@H]2CC[C@]12O[C@@H]1C[C@H](C)CN[C@H]1[C@H]2C` [jervine, Jervine], the IC50 (commonly the midpoint of a concentration-inhibition curve) in data set [1] was found to be 50 nM. Also, the animal deaths result in data set [2] (50 mg/kg oral) is given as “no animal dead”; in data set [2] (80 mg/kg oral) it was “no animal die; also recorded: no animal dead”; in data set [2] (150 mg/kg oral, 3 mice per group) it was “Two”. In addition, the weight loss entry in data set [2] (80 mg/kg oral gavage) is on record as “no significant weight loss”. Moreover, the MTD – broadly, the highest dose tested that stayed within the study's limit of toxicity – in data set [2] (mouse, in vivo, oral, BALB/c nude mice) is more than 80 mg/kg. Further, the “T/C value (tumor volume)” value in data set [3] (40 mg/kg p.o. QD for 21 days) stood at 0.79; in data set [3] (60 mg/kg p.o. QD for 21 days), 0.701; in data set [3] (80 mg/kg p.o. QD for 21 days), 0.594; in data set [5] (20 mg/kg iv QD × 21 days) it was 25.8%; in data set [5] (40 mg/kg iv QD × 21 days) it was 59.1%; in data set [5] (80 mg/kg iv QD × 21 days), 54.2%. The “T/C value (tumor volume)” value in the data set on A431 xenograft (40 mg/kg p.o. QD for 21 days) worked out at 0.52; in the data set on A431 xenograft (60 mg/kg p.o. QD for 21 days), 0.80; in the data set with A431 xenograft (80 mg/kg p.o. QD for 21 days), 0.82. The “F (bioavailability)” value in data set [4] (PO 10 mg/Kg, 10 mg/kg) amounted to 41.2%. Further, the bioavailability (commonly the share of a dose that reaches the circulation, judged against a reference dose that is usually intravenous) in data set [4] (male, CD-1, mouse, plasma, po, 10 mg/kg, read-out: F (bioavailability)) was 41%. Besides, the AUC(0-inf) – broadly, total exposure, with the tail of the curve extrapolated – in data set [4] (setting [7]) was 2260 ng·h/mL. Besides, in data set [4] (setting [7]), the AUC(0-t) (usually exposure summed from dosing to a finite time, without extrapolation to infinity) was 1790 ng·h/mL. Moreover, the concentration in data set [4] (setting [7]) peaked (Cmax) at 368 ng/mL. In addition, in data set [4] (male, mouse, PO 10 mg/Kg, plasma, read-out: T½ (converted)), the half-life is 11.8 h. The “side effects / weight loss of the mice” value in data set [6] is “no obvious side effects; also recorded: no significant of weight lose”.
